Measured values taken from patent US9625446B2, “Method and quantification assay for determining c-kit/SCF/pAKT status” (Ventana Medical Systems, Inc., priority 2001, dated 2017).

Molecular target: c-kit receptor (Homo sapiens, UniProt P10721)
Details: MDA-MB-361 cells, SCF ligand present, three-day culture, STI-571 1 μM to 40 μM, 50 μg total protein lysate, FIG. 4

c-kit receptor, sequence (P10721 26-976): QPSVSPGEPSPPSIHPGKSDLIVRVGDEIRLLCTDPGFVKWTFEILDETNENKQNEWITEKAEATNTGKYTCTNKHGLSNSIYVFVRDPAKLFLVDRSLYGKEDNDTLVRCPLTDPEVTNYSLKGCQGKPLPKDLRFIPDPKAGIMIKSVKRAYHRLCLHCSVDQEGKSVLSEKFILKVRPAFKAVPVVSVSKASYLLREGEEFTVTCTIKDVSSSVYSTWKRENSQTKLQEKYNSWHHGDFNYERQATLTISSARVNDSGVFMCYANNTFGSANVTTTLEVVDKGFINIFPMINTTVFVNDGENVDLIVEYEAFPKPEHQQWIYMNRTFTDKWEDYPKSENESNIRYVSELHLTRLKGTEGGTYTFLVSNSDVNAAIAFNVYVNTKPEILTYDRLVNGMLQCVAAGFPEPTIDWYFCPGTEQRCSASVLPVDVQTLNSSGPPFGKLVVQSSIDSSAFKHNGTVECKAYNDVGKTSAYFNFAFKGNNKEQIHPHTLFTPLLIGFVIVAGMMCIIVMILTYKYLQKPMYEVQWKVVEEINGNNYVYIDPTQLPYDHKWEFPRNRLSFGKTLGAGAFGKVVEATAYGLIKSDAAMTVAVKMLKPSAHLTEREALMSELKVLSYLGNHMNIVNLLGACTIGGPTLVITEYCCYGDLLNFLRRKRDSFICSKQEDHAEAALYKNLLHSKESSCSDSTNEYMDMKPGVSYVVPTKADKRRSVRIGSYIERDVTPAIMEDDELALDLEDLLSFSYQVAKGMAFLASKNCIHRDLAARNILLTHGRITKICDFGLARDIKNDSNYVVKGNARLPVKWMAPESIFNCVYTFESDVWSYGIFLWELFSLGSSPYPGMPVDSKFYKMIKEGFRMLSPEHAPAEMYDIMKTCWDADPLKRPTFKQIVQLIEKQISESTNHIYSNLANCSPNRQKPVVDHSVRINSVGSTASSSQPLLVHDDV

STI-571 concentration at which SCF-induced c-kit activation is inhibited (no 145 kDa activated c-kit band): ≤ 1 µM
Compound: Cc1ccc(NC(=O)c2ccc(CN3CCN(C)CC3)cc2)cc1Nc1nccc(-c2cccnc2)n1 [STI-571]
